Results as given in PMC9145144, “Virtual Screening and Hit Selection of Natural Compounds as Acetylcholinesterase Inhibitors” (Molecules, 2022).
Converted amounts (≈) assume the structure as drawn. “And” between values parts separate entries of the source, which are not always exact repeats. Equal values may be shown once. “Also recorded” adds a separate entry of the source. Read-outs that look alike come from different tables or passages of the source.

How the values were obtained:
[1] = ABTS radical scavenging activity; details: for ABTS (%) radical scavenging activity: absorbance at 734 nm after 7 min, triplicate, means ± SD, BHT 1 mM in MeOH, na = not active; for antioxidant activity (in words): ABTS radical scavenging
Protocol: […] (ABTS), potassium persulphate, and butylhydroxy toluol (BHT) were purchased from Sigma-Aldrich. For ABTS assay, the procedure followed the method of Grochowski et al. with some modifications. The stock solutions included 7 mM ABTS solution and 2.4 mM potassium persulphate solution. The working solution was then prepared by mixing the two stock solutions in equal quantities and allowing them to react for 14 h at room temperature in the dark. […] A fresh ABTS solution was prepared for each assay. […] of each com-pound (125 μL) was allowed to react with 1850 μL of the ABTS solution, and the absorbance was taken at 734 nm after 7 min. The control contains 125 μL methanol and 1850 μL of the ABTS solution. All determinations were performed in triplicate (n = 3). The results were expressed as % ABTS activity, using the following equation: % ABTS radical scavenging activity = ((Acontrol − Asample)/Acontrol) × 100, where Acontrol is the absorbance of the control, while Asample is the absorbance of the sample. Butylhydroxytoluene (BHT) (1 mM in MeOH) was used as a positive control.

[2] = target: acetylcholinesterase from Electrophorus electricus (Electrophorus electricus, UniProt O42275); assay: biochemical; format: biochemical; details: for IC50: triplicate, means ± SD, na = not active
Sequence of acetylcholinesterase from Electrophorus electricus (O42275 24-633): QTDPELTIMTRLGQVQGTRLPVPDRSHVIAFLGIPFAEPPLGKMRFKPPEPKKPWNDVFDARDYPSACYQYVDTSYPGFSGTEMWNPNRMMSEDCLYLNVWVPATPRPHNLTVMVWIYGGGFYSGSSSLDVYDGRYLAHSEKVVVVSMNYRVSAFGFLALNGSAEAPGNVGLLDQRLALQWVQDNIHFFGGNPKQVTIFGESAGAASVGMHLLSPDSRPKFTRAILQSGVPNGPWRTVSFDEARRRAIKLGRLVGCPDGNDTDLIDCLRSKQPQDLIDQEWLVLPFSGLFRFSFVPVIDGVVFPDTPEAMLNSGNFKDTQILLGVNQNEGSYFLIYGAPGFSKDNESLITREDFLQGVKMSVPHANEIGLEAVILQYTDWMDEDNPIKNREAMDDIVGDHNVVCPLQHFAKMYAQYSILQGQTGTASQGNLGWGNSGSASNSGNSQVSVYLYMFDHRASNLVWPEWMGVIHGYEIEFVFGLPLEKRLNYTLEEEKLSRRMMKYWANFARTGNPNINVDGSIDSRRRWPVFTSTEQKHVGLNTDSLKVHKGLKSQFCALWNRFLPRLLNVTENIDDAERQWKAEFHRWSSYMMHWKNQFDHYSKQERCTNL

[3] = test system: AChE; details: cited from earlier work
[4] = test system: BChE; details: cited from earlier work
[5] = set-up: method as in doi:10.1016/j.phytol.2015.03.012; details: cited from earlier work
[6] = target: NMDA receptor; details: NMDA receptor antagonists; cited from earlier work
[7] = Ellman's method, read-out: IC50

| Molecule | ABTS (%) radical scavenging activity [1] | AChE inhibitory activity (in words) ([2]; Ellman's method) | IC50 [2, 7] | other results |
| --- | --- | --- | --- | --- |
| Cc1cc(C(C)(C)C)c(O)c(C(C)(C)C)c1 [BHT, butylhydroxytoluene, reference compound] | 92.38% and 92.38 ± 0.21% |  |  |  |
| O=C(Cn1ccc2ccc(F)cc21)NC[C@@H]1CCCN2CCCC[C@H]12 [Compound 9, N-{[(1S,9aR)-octahydro-1H-quinolizin-1-yl]methyl}-2-(6-fluoro-1H-indol-1-yl)acetamide] | 6.43% and 6.43 ± 0.85% | micro- to low millimolar range | 1000 to 2000 µM and 1800 µM |  |
| CC(=O)Nc1ccc(N[C@@H]2OC(=O)c3c2c2ccccc2n3C)cc1 [Compound 16, (R)-N-(4-((4-methyl-3-oxo-3,4-dihydro-1H-furo [3,4-b]indol-1-yl)amino)phenyl)acetamide] | 95.82% and 95.82 ± 0.21% | no AChE activity |  | antioxidant activity (in words) [1]: higher than that of the positive control |
| O=C1C2CCCN2C(=O)c2ccccc2N1CCc1ccccc1 (centres unmarked) [Compound 17] |  |  | > 10000 µM |  |
| Cc1ccc(NC(=O)C[C@H]2NCCc3c([nH]c4ccccc34)C2=O)cc1 [Compound 21, N-(4-methylphenyl)-2-{5-oxo-1H,2H,3H,4H,5H,6H-azepino [4,5-b]indol-4-yl} acetamide] | 34.68% and 34.68 ± 1.27% | micro- to low millimolar range | 1000 to 2000 µM and 1200 µM |  |
| O=C(/C=C/c1ccccc1)N1C[C@@H]2C[C@H](C1)c1cccc(=O)n1C2 [Compound 22, (1S,9R)-11-[(2E)-3-phenylprop-2-enoyl]-7,11-diazatricyc lotrideca-2,4-dien-6-one] |  | micromolar range; also recorded: micro- to low millimolar range |  | IC50 ([2]; IC50, Ellman's method): 390 ± 160 µM |
| CC1CCc2c([nH]c3ccccc23)C2(N1)C(=O)Nc1ccccc12 (centres unmarked) [Compound 28, 3-methyl-1′,2′,3,4,5,10-hexahydro-2H-spiro[azepino [3,4-b]indole-1,3′-indol]-2′-one] | 80.94% and 70.55 ± 0.85% | micromolar range; also recorded: micro- to low millimolar range | 620 ± 140 µM | antioxidant activity (in words) [1]: high antioxidant activity |
| C=CCN1C(=O)C2(NCCc3c2[nH]c2ccc(C)cc32)c2ccccc21 (centres unmarked) [Compound 29, 6′-methyl-1-(prop-2-en-1-yl)-1,2,2′,3′,4′,9′-hexahydrospiro[indole-3,1′-pyrido [3,4-b]indol]-2-one] | 70.55% and 80.94% and 80.94 ± 0.94% | micro- to low millimolar range | > 5000 µM and 5700 µM | antioxidant activity (in words) [1]: high antioxidant activity |
| O=c1cccc2n1C[C@@H]1CNC[C@H]2C1 [Cytisine] |  |  |  | inhibition of AChE (in words) [3]: does not inhibit; inhibition of BChE (in words) [4]: does not inhibit |
| O=C1O[C@H]([C@@H](O)CO)C(O)=C1O [ascorbic acid] |  |  |  | IC50 scavenging activity in the ABTS model [5]: 105.90 µg/mL (≈ 601 µM) |
| CC[C@H]1C[C@@H]2CN3CCc4c([nH]c5ccccc45)[C@](C(=O)OC)(C2)[C@H]13 [coronaridine] |  |  |  | Ki [6]: 6.2 µM |
| Ibogaine |  |  |  | Ki [6]: 1.1 µM |
